Patent US20110150980A1, “CGRP ANALOG” (VasoGenix Pharmaceuticals, Inc., priority 2009, published 2011)
Bridges are numbered along the chain shown (N, C = ends). Where no end group is shown, it is not given here.

Legend:
[1] = tested on: sedated Non Human Primate; assay: IV infusion in the sedated Non Human Primate: blood pressure and heart rate (Example 1); format: in vivo
[2] = target: T1, CRLR/RAMP1 receptor (Homo sapiens, UniProt O60894+Q16602); assay: CRE-luciferase assay in HEK293T cells transfected with CRLR and RAMP1; format: cell-based; settings: compared to h-α-CGRP and h-β-CGRP as controls
T1 construct: All of the full-length cDNAs were subcloned into pcDNA3.1 expression vectors; expressed in transfected cells; host or cells: HEK293T, transient calcium phosphate transfection, pcDNA3.1 vectors
Description: The expression vectors for RAMP1, RAMP2, RAMP3, CRLR, CRE-Luc and SRE-Luc were constructed as previously described (McLatchie L. M., et al. (1998) Nature 393:333-339). Human CRLR, RAMP1, and RAMP2 full-length cDNAs were cloned by RT-PCR using RNA obtained from HEK293T cells and CRLR, RAMP1, and RAMP2-specific primers. Human RAMP3 full-length cDNAs were cloned by RT-PCR using RNA from human kidney and RAMP3 specific primers. All of the full-length cDNAs were subcloned into pcDNA3.1 expression vectors.
Human embryonic kidney 293T cells (HEK293T) were maintained in Dulbecco's modified Eagle's medium supplemented with 10% fetal calf serum, 2 mM glutamine, […], at 37° C. in a humidified atmosphere of 95% air and 5% CO2. Transient transfections were performed using calcium phosphate co-precipitation (Mellon P. L., et al. (1981) Cell 27:279-288). Cells in six-well plates or 100-mm Petri dishes were grown to 70% confluence and transfected with 0.1 μg of DNA for CRLR, 0.05 μg for RAMPs or 1 μg for CRE-Luc and SRE-Luc per cm^2. The total amount of DNA transfected in each condition was kept constant by adding empty pcDNA3.1 vector when needed. Twenty hours after transfection, the medium was replaced with fresh medium containing 5 mM sodium butyrate for 24 h and then replaced for an additional 24 h with fresh medium without sodium butyrate. All of the experiments were performed 72 h after transfection to allow correct glycosylation and cell surface targeting of CRLR and RAMPs.
After exposure to various concentrations of CGRP or the CGRP analogs, the cells were lysed and assayed for CRE- or SRE-luciferase activity using the luciferase assay system (Promega), and luminescence was measured using a 96-well luminometer.
The mechanism of action for CGRP at the CRLR/RAMP1 receptor is known to up-regulate cAMP through the gs pathway, and to a lesser extent [Ca^2+] through the gq pathway. […] It is the cAMP pathway that is the primary mechanism of action of CGRP for vasodilation, cardio/renoprotection and immunomodulation.

[3] = tested on: non-sedated, non-naïve cynomolgus monkeys; assay: Intravenous infusion in non-sedated, telemeterized non-human primates: blood pressure, heart rate, ECG (Example 2); format: in vivo
Experimental: Peptides were synthesized as in Example 1. […] Two non-naïve, telemeterized, male non-human primates (NHP “a” and “b”) were used for the test article(s) dosing regimen. […] Following a stabilized baseline period of approximately 30 minutes, one of the test article(s) was administered as an intravenous infusion via a femoral vein vascular access port (VAP) using a Pegasus PCA infusion pump for a period of 30 or 60 minutes. A minimum period of 30 minutes was allotted for the hemodynamic parameters to return to baseline prior to the next test article infusion dose. The process was repeated for each of the stated test articles. The same procedure was followed for the 1 hour infusion with 1 hour allotted for parameters to return to base line.
The non-human primates were previously surgically prepared with telemetry transducers, type TL11M2-D70-PCT (Data Sciences International). The acquisition and analysis was done using a Ponemah (Version 4.8 or higher) data acquisition and analysis system installed on the hard drive of a computer. The computer was equipped with disk drive for file back up on readable write-once only optical media (CD-R or DVD-R).
Prior to the first dose administration, baseline data was acquired. For each subsequent dose, data was collected for approximately 30 min postdose. Prior to the next dose, the hemodynamic parameters were allowed to return to a stable baseline±10%.
Systolic blood pressure (SYS or SBP), diastolic blood pressure (DBP), mean arterial pressure (MAP), heart rate (HR), and all lead II ECG variables were recorded. The telemetry data files were transferred to an Excel (MicroSoft® Version 2003) spreadsheet. The following variables from the lead II ECG were measured: PR interval, QRS duration, QT interval, RR interval, and QTcF interval (calculated as
A visual inspection of the entire collected ECG waveform for disturbances in rhythm and waveform morphology was performed. The data for selected time points were analyzed and assessed on completion of data acquisition and were the average of at least 30 beats (ABP and ECG) of data at the selected analysis time, when possible. The time points for both hemodynamic and ECG data analysis were an initial 30 min baseline prior to the first dose, at a 10 min during each infusion postdose interval relative to end of each infusion, and time points prior to the next test article infusion for each test compound.
Non-human primates were selected because they have the same RAMP 1-CGRP receptor complex as humans.

[4] = NHP a, dose day 2, during 30 minute infusions of 0.024 ug/kg/min
[5] = NHP a, dose day 3, during 30 minute infusions of 0.024 ug/kg/min
[6] = NHP a, dose day 3, during 1 hour infusion of 0.024 ug/kg/min
[7] = NHP b, dose day 2, during 30 minute infusions of 0.024 ug/kg/min
[8] = NHP b, dose day 3, during 30 minute infusions of 0.024 ug/kg/min
[9] = NHP b, dose day 3, during 1 hour infusion of 0.024 ug/kg/min
[10] = average of a 2, b 2, a 3, b 3, during 30 minute infusions of 0.024 ug/kg/min
[11] = average of a3, b3, during 1 hour infusion of 0.024 ug/kg/min

T1 sequence (Q16602 23-461): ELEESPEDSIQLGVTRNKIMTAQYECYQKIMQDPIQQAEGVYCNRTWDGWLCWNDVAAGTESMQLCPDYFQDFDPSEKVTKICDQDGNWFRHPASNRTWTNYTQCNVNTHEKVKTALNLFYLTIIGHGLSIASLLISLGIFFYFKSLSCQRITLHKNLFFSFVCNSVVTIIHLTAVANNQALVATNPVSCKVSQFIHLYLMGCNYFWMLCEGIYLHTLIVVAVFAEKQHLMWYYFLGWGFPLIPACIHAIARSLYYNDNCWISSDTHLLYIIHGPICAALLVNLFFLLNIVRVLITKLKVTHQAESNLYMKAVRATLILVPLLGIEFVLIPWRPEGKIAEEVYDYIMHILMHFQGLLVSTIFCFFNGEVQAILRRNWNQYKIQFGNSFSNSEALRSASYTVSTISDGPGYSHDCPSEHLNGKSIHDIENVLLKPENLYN
T1 sequence (O60894 27-148): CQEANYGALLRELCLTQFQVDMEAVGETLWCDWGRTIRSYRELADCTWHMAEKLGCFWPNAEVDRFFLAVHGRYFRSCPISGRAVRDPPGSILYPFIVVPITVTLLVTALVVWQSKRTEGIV

## Cyc-ACNTATCVTHRLAGLLSRSGGVVKSNFVPTNVGSKAF-NH2 (disulfide 2-7 (inferred)) [Peptide V]
[1]; at any of the tested doses
  Heart rate effect: no increase in heart rate
[1]; sedated Non Human Primate, IV for 5 minutes at 29/ng/kg/min
  increase in heart rate (HR) compared to the control CGRP: reduced increase in heart rate
[2]
  activity and potency in binding to the CGRP receptor, CRE-Luciferase assay: as equally active and potent as h-α-CGRP and h-β-CGRP
[3]; [4]
  Percent change in HR, a 2: −19.8%
  Percent change in mean BP, a 2: −20.0%
  Percent change in systolic BP, a 2: −16.2%
[3]; [5]
  Percent change in HR, a 3: −22.2%
  Percent change in mean BP, a 3: −8.8%
  Percent change in systolic BP, a 3: −6.8%
[3]; [6]
  Percent change in HR at 30 minutes, a3: −22.2%
  Percent change in HR at 60 minutes, a3 1 hr: −5.8%
  Percent change in mean systolic BP at 30 minutes, a3: −8.8%
  Percent change in mean systolic BP at 60 minutes, a3 1 hr: −5.3%
  Percent change in systolic BP at 30 minutes, a3: −6.8%
  Percent change in systolic BP at 60 minutes, a3 1 hr: −5.8%
[3]; [7]
  Percent change in HR, b 2: −13.1%
  Percent change in mean BP, b 2: −28.6%
  Percent change in systolic BP, b 2: −27.2%
[3]; [8]
  Percent change in HR, b 3: −37.3%
  Percent change in mean BP, b 3: −26.4%
  Percent change in systolic BP, b 3: −23.9%
[3]; [9]
  Percent change in HR at 30 minutes, b3: −37.3%
  Percent change in HR at 60 minutes, b3 1 hr: 14.5%
  Percent change in mean systolic BP at 30 minutes, b3: −26.4%
  Percent change in mean systolic BP at 60 minutes, b3 1 hr: 2.4%
  Percent change in systolic BP at 30 minutes, b3: −23.9%
  Percent change in systolic BP at 60 minutes, b3 1 hr: 2.8%
[3]; Table 14, NHP a, dose day 2, during 30 minute infusions of 0.024 ug/kg/min
  Percent change in mean HR, a 2: −19.8%
[3]; Table 14, NHP a, dose day 3, during 30 minute infusions of 0.024 ug/kg/min
  Percent change in mean HR, a 3: −22.2%
[3]; Table 14, NHP b, dose day 2, during 30 minute infusions of 0.024 ug/kg/min
  Percent change in mean HR, b 2: −13.1%
[3]; Table 14, NHP b, dose day 3, during 30 minute infusions of 0.024 ug/kg/min
  Percent change in mean HR, b 3: −37.3%
[3]; Table 14, average of a 2, b 2, a 3, b 3, during 30 minute infusions of 0.024 ug/kg/min
  Percent change in mean HR, HR: −23.1%
[3]; Table 24, NHP a, dose day 3, during 1 hour infusion of 0.024 ug/kg/min
  Percent change in mean HR at 30 minutes, a3: −22.2%
[3]; Table 24, NHP b, dose day 3, during 1 hour infusion of 0.024 ug/kg/min
  Percent change in mean HR at 30 minutes, b3: −37.3%
[3]; Table 24, average of a3, b3, during 1 hour infusion of 0.024 ug/kg/min
  Percent change in mean HR at 30 minutes, HR T30: −29.8%
[3]; Table 25, NHP a, dose day 3, during 1 hour infusion of 0.024 ug/kg/min
  Percent change in mean HR at 60 minutes, a3 1 hr: −5.8%
[3]; Table 25, NHP b, dose day 3, during 1 hour infusion of 0.024 ug/kg/min
  Percent change in mean HR at 60 minutes, b3 1 hr: 14.5%
[3]; Table 25, average of a3, b3, during 1 hour infusion of 0.024 ug/kg/min
  Percent change in mean HR at 60 minutes, HR T60: 4.4%
[3]; [10]
  Percent change in HR, HR: −23.1%
  Percent change in mean BP, BP: −21.0%
  Percent change in systolic BP, BP: −18.5%
[3]; [11]
  Percent change in HR at 30 minutes, HR T30: −29.8%
  Percent change in HR at 60 minutes, HR T60: 4.4%
  Percent change in mean systolic BP at 30 minutes, BP T30: −17.6%
  Percent change in mean systolic BP at 60 minutes, BP T60: −1.5%
  Percent change in systolic BP at 30 minutes, T30: −15.4%
  Percent change in systolic BP at 60 minutes, T60: −1.5%
[3]; mean BP and HR, 30 minute infusions, 0.024 ug/kg/min
  reduction of BP and HR (Tables 8, 13 and 14, FIG. 11): reduced both BP and HR to a greater extent than the positive control αCGRP
[3]; non-sedated cynomolgus monkeys, IV infusion
  effect on heart rate: maintenance of pre-administration heart rate, and in some cases, reduction in heart rate
[3]; systolic BP and HR, 30 minute infusions, 0.024 ug/kg/min
  reduction of BP and HR (Tables 8-10, FIG. 10): reduced BP and HR to a greater extent than αCGRP and βCGRP
